Laboratory results from patent publication US10588952B2, “Conjugate vaccine using trimming function of ERAP1” (SUMITOMO DAINIPPON PHARMA CO., LTD., priority 2013, dated 2020).
Values after ≈ are worked out from the molar mass of the structure shown. Values belong to the compound of their own block, whether it stands above or below them.

Experiments:
ERAP1 [1] = molecular target: T1, ERAP1 (Homo sapiens, UniProt Q9NZ08); assay: Test of trimming of N-terminal amino acid by ERAP1 (Experimental Example 10, Examples 85-103); assay type: biochemical; details: MAGE-A10 254-262 peptide obtained by ERAP1 trimming; from HPLC AUC
Experimental: The peptides synthesized in Examples 85-103 were evaluated for N-terminal amino acid trimming efficiency using ERAP1. 50 μl of ERAP1 solution (10 μg/ml) in pH 8.0, 20 mM Tris.HCl-100 mM NaCl buffer (Tris.HCl buffer) was added to 142 μl of Tris.HCl buffer. 10 mM peptide solution in DMSO (2.0 μl) and 6.0 μL of DMSO were added to the aforementioned ERAP1 solution, and the mixture was blended well and stood at 30° C. […] The peptide to be obtained by trimming was chemically synthesized separately, and analyzed under similar conditions in the absence of the enzyme. The formation ratio of the peptide [MAGE-A10254-262 peptide ([…]) (SEQ ID NO: 19)] obtained by trimming was determined based on the obtained AUC, and is shown in Tables 45 and 46. […]
(§1) pump: UFLC manufactured by Shimadzu […]
(§2) solution: 0.1% TFA H2O(A)-0.1% TFA CH3CN(B) […]
(§3) detection wavelength: λ=220 nm gradient: concentration of SOLUTION B was raised from 10% to 50% from 0.0 min to 8.5 min

ERAP1 [2] = molecular target: T1, ERAP1; assay: Test of trimming of N-terminal amino acid by ERAP1 (Experimental Example 11, Examples 50, 56, 64, 67); assay type: biochemical; details: Proteinase-3 169-177 peptide obtained by ERAP1 trimming; from HPLC AUC
Experimental: (§4) The peptides synthesized in Examples 50, 56, 64 and 67 were evaluated for N-terminal amino acid trimming efficiency using ERAP1. 50 μl of ERAP1 solution (10 μg/ml) in pH 8.0, 20 mM Tris.HCl-100 mM NaCl buffer (Tris.HCl buffer) was added to 142 μl of Tris.HCl buffer. 10 mM peptide solution in DMSO (2.0 μl) and 6.0 μL of DMSO were added to the aforementioned ERAP1 solution, and the mixture was blended well and stood at 30° C. […] The peptide to be obtained by trimming was chemically synthesized separately, and analyzed under similar conditions in the absence of the enzyme. […]
as §1, §2, §3

ERAP1 [3] = molecular target: T1, ERAP1; assay: Time-course changes of trimming of N-terminal amino acid by ERAP1 (Experimental Example 2); assay type: biochemical; details: peptide obtained by trimming (SEQ ID NO: 53, 43 or 19), ERAP1 solution 0.5 mg/ml, room temperature
Experimental: 20 μl of ERAP1 solution (0.5 mg/ml) in Tris.HCl buffer was added to 172 μl of Tris.HCl buffer. 10 mM peptide solution in DMSO (8.0 μl) was added to the aforementioned ERAP1 solution, and the mixture was blended well and stood at room temperature. […]
pump: UFLC manufactured by Shimadzu column: Shim-pack XR-ODS 3.0 mmi.d.×75 mm solution: 0.05% TFA H2O(A)-0.05% TFA CH3CN(B) […]
detection wavelength: λ=220 nm gradient: Concentration of SOLUTION B was raised from 1.0% 70% from 0.0 min to 5.0 min […]
The peptide to be obtained by the trimming of the N-terminal amino acid(s) by ERAP1 is, […]

ERAP1 [4] = molecular target: T1, ERAP1; assay: Test of trimming of N-terminal amino acid by ERAP1 (Experimental Example 9, Examples 69-84); assay type: biochemical; details: MAGE-A10 254-262 peptide obtained by ERAP1 trimming; from HPLC AUC;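 further: peptide incubated with ERAP1 for 1 h before HPLC analysis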
Experimental: as §4, with “69-84” for “50, 56, 64 and 67”, “peptide” for “peptide to be”
as §1, §2, §3

T1 sequence (Q9NZ08 whole entry): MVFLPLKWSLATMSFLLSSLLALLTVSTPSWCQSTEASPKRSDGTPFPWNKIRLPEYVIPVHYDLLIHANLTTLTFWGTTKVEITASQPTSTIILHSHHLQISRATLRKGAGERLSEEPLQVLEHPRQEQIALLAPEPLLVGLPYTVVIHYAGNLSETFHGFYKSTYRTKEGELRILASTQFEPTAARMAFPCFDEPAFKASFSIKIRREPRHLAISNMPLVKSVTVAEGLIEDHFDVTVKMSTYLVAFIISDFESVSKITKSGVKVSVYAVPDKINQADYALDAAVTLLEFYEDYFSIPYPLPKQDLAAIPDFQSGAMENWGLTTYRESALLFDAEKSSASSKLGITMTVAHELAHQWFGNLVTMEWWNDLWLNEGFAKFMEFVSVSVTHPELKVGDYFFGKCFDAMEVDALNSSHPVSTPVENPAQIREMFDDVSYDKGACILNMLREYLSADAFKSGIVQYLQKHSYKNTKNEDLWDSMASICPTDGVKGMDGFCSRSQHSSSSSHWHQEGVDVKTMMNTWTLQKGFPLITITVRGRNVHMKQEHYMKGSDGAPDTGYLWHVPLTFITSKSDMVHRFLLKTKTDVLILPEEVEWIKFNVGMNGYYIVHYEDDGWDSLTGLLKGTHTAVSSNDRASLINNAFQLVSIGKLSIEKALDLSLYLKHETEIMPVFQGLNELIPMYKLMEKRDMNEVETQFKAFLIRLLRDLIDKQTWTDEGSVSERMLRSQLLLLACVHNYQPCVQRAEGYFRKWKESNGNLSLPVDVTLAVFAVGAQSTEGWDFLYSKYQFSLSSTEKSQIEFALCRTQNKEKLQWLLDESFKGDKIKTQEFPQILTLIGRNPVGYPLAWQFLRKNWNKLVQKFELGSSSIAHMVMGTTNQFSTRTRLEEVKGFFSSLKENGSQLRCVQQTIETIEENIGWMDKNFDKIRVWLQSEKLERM
Experimental for physchem: To prepare a test solution, about 1 mg of a test product was measured and the isotonic buffer (0.5 mL) was added thereto. The prepared solution was shaken at room temperature for 90 min (shaking conditions: RECIPRO SHAKER SR-1N manufactured by TAITEC, Speed=8), centrifuged (15000 rpm, 5 min, room temperature), and the supernatant after centrifugation was used as a test solution.
About 1 mg of the test product was accurately measured, dissolved in 0.1% TFA water/acetonitrile=1/1, made the total amount 10 mL, and this was used as a standard solution of the test product.
The standard solution of the test product and the test solution are analyzed by HPLC (under the analysis conditions described in Table 34), and the solubility of the test product is calculated from the ratio of peak area compared to the standard solution.
column: Chemcopack Quicksorb (4.6 mmφ×150 mm, 5 μm)
manufactured by Chemco Scientific Co., Ltd.
mobile phase: SOLUTION A; 0.1% TFA water, SOLUTION B;
0.1% TFA acetonitrile solution
column temperature: room temperature
detection wavelength: UV 254 nm, 230 nm (2 wavelength detection)
sample injection volume: 10

Compound: CC[C@H](C)[C@H](NC(=O)[C@H](CCCCN)NC(=O)[C@@H](N)CSSC[C@H](N)C(=O)NCC(=O)N[C@@H](CC(C)C)C(=O)N[C@@H](Cc1ccc(O)cc1)C(=O)N[C@@H](CC(=O)O)C(=O)NCC(=O)N[C@@H](CCSC)C(=O)N[C@@H](CCC(=O)O)C(=O)N[C@@H](Cc1c[nH]cn1)C(=O)N[C@@H](CC(C)C)C(=O)O)C(=O)N[C@@H](Cc1ccccc1)C(=O)NCC(=O)N[C@@H](CO)C(=O)N[C@@H](CC(C)C)C(=O)N[C@@H](C)C(=O)N[C@@H](Cc1ccccc1)C(=O)N[C@@H](CC(C)C)C(=O)O [Example 29]
solubility thermodynamic at 90 min (physchem; pH 6): 170 µg/mL (≈ 76.1 µM)
solubility thermodynamic at 90 min (physchem; pH 7.4): > 1000 µg/mL

Compound: CC[C@H](C)[C@H](NC(=O)[C@H](CCCCN)NC(=O)[C@@H](N)CSSC[C@H](N)C(=O)N[C@H](C)C(=O)N[C@@H](CCCCN)C(=O)N[C@@H](Cc1ccccc1)C(=O)N[C@H](C(=O)N[C@@H](C)C(=O)N[C@@H](C)C(=O)N[C@@H](Cc1c[nH]c2ccccc12)C(=O)N[C@H](C(=O)N[C@@H](CC(C)C)C(=O)N[C@@H](CCCCN)C(=O)N[C@@H](C)C(=O)N[C@@H](C)C(=O)N[C@H](C)C(=O)O)[C@@H](C)O)C(C)C)C(=O)N[C@@H](Cc1ccccc1)C(=O)NCC(=O)N[C@@H](CO)C(=O)N[C@@H](CC(C)C)C(=O)N[C@@H](C)C(=O)N[C@@H](Cc1ccccc1)C(=O)N[C@@H](CC(C)C)C(=O)O [Example 112]
solubility thermodynamic at 90 min (physchem; pH 6): < 1 µg/mL
solubility thermodynamic at 90 min (physchem; pH 7.4): 2 µg/mL (≈ 0.785 µM)

Compound: CC[C@H](C)[C@H](NC(=O)[C@H](CCCCN)NC(=O)[C@@H](N)CSSC[C@H](NC(=O)[C@@H](C)NC(=O)[C@H](C)NC(=O)[C@H](C)NC(=O)[C@H](CCCCN)NC(=O)[C@H](CC(C)C)NC(=O)[C@@H](NC(=O)[C@H](Cc1c[nH]c2ccccc12)NC(=O)[C@H](C)NC(=O)[C@H](C)NC(=O)[C@@H](NC(=O)[C@H](Cc1ccccc1)NC(=O)[C@H](CCCCN)NC(=O)[C@@H](C)N)C(C)C)[C@@H](C)O)C(=O)O)C(=O)N[C@@H](Cc1ccccc1)C(=O)NCC(=O)N[C@@H](CO)C(=O)N[C@@H](CC(C)C)C(=O)N[C@@H](C)C(=O)N[C@@H](Cc1ccccc1)C(=O)N[C@@H](CC(C)C)C(=O)O [Example 113]
solubility thermodynamic at 90 min (physchem; pH 6): < 1 µg/mL
solubility thermodynamic at 90 min (physchem; pH 7.4): 2 µg/mL (≈ 0.785 µM)

solubility thermodynamic at 90 min (physchem; pH 6): 100 µg/mL (≈ 100 µM)
solubility thermodynamic at 90 min (physchem; pH 7.4): 123 µg/mL (≈ 124 µM)
Compound: CC[C@H](C)[C@H](NC(=O)[C@@H](N)CCCCN)C(=O)N[C@@H](Cc1ccccc1)C(=O)NCC(=O)N[C@@H](CO)C(=O)N[C@@H](CC(C)C)C(=O)N[C@@H](C)C(=O)N[C@@H](Cc1ccccc1)C(=O)N[C@@H](CC(C)C)C(=O)O [SEQ ID NO: 53, reference compound]

formation rate of GLYDGMEHL (SEQ ID NO: 19) (ERAP1 [1]): 5.2%
Compound: H-ACGLYDGMEHL-OH [Example 92]

formation rate of VLQELNVTV (SEQ ID NO: 43) (ERAP1 [2]): 1.8%
Compound: H-ACVLQELNVTV-OH [Example 50]

formation rate(%) 1 hr later (ERAP1 [3]): 87.8%
formation rate(%) 2 hr later (ERAP1 [3]): 99.4%
formation rate(%) 4 hr later (ERAP1 [3]): 103%
formation rate(%) 8 hr later (ERAP1 [3]): 97.5%
Compound: H-CAGLYDGMEHL-OH [Example 26]

formation rate(%) 1 hr later (ERAP1 [3]): 46.1%
formation rate(%) 2 hr later (ERAP1 [3]): 49.9%
formation rate(%) 4 hr later (ERAP1 [3]): 51.3%
formation rate(%) 8 hr later (ERAP1 [3]): 53.5%
Compound: H-CAVLQELNVTV-OH [Example 22]

formation rate of GLYDGMEHL (SEQ ID NO: 19) (ERAP1 [4]): 25.0%
Compound: H-CDGLYDGMEHL-OH [Example 83]

formation rate of GLYDGMEHL (SEQ ID NO: 19) (ERAP1 [4]): 6.2%
Compound: H-CEGLYDGMEHL-OH [Example 70]

formation rate of GLYDGMEHL (SEQ ID NO: 19) (ERAP1 [4]): 0.0%
Compound: H-CFGLYDGMEHL-OH [Example 75]

formation rate of GLYDGMEHL (SEQ ID NO: 19) (ERAP1 [4]): 0.0%
Compound: H-CGGLYDGMEHL-OH [Example 71]

formation rate of GLYDGMEHL (SEQ ID NO: 19) (ERAP1 [4]): 0.0%
Compound: H-CHGLYDGMEHL-OH [Example 72]

formation rate of GLYDGMEHL (SEQ ID NO: 19) (ERAP1 [4]): 0.4%
Compound: H-CIGLYDGMEHL-OH [Example 73]

formation rate of GLYDGMEHL (SEQ ID NO: 19) (ERAP1 [4]): 0.0%
Compound: H-CKGLYDGMEHL-OH [Example 74]

formation rate(%) 1 hr later (ERAP1 [3]): 58.3%
formation rate(%) 2 hr later (ERAP1 [3]): 94.9%
formation rate(%) 4 hr later (ERAP1 [3]): 88.4%
formation rate(%) 8 hr later (ERAP1 [3]): 88.3%
Compound: H-CLGLYDGMEHL-OH [Example 27]

formation rate(%) 1 hr later (ERAP1 [3]): 31.1%
formation rate(%) 2 hr later (ERAP1 [3]): 36.9%
formation rate(%) 4 hr later (ERAP1 [3]): 38.1%
formation rate(%) 8 hr later (ERAP1 [3]): 36.1%
Compound: H-CLVLQELNVTV-OH [Example 23]

formation rate(%) 1 hr later (ERAP1 [3]): 90.6%
formation rate(%) 2 hr later (ERAP1 [3]): 103%
formation rate(%) 4 hr later (ERAP1 [3]): 96.0%
formation rate(%) 8 hr later (ERAP1 [3]): 101%
Compound: H-CMGLYDGMEHL-OH [Example 28]

formation rate(%) 1 hr later (ERAP1 [3]): 28.7%
formation rate(%) 2 hr later (ERAP1 [3]): 34.5%
formation rate(%) 4 hr later (ERAP1 [3]): 36.5%
formation rate(%) 8 hr later (ERAP1 [3]): 36.8%
Compound: H-CMVLQELNVTV-OH [Example 24]

formation rate of GLYDGMEHL (SEQ ID NO: 19) (ERAP1 [4]): 82.2%
Compound: H-CNGLYDGMEHL-OH [Example 82]

formation rate of GLYDGMEHL (SEQ ID NO: 19) (ERAP1 [4]): 0.0%
Compound: H-CPGLYDGMEHL-OH [Example 76]

formation rate of GLYDGMEHL (SEQ ID NO: 19) (ERAP1 [4]): 56.9%
Compound: H-CQGLYDGMEHL-OH [Example 69]

formation rate of GLYDGMEHL (SEQ ID NO: 19) (ERAP1 [4]): 0.0%
Compound: H-CRGLYDGMEHL-OH [Example 81]

formation rate of GLYDGMEHL (SEQ ID NO: 19) (ERAP1 [4]): 1.1%
Compound: H-CSGLYDGMEHL-OH [Example 84]
